This note sets out measurements from PubChem BioAssay AID2102 (Southern Research Specialized Biocontainment Screening …, 2009).

SMILES strings stand for the structures.

One may read the CC50 as the concentration at which the toxic effect on the cells reaches its halfway point.

The test has as its system Host cell viability cytotoxicity counter-screen, SV40 T antigen hits. In words: host cell cytotoxicity, dose response, cytotoxicity control for SV40 T antigen inhibitor project, selected hits (AID 2102).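 Also: cells exposed to compounds for 72 hours.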
Take `C=CCn1c(SCC(C)=O)nc2scc(-c3ccco3)c2c1=O`: the CC50 is 48.4 µM.

With `COc1ccc(N2CCC(CNC(=S)Nc3c(C)cc(C)cc3C)C2)cc1` (centres undefined), the CC50 is 15.9 µM.

For `CCOc1c(Br)cc(CNc2ccc(N3CCN(C(C)=O)CC3)cc2)cc1OC`, the cytotoxic concentration (CC50) is 14.2 µM.

`CCOC(=O)c1c(N2C(=O)Nc3cc(Cl)c(Cl)cc3N2O)sc2c1CCCCC2`: the CC50 is 15.6 µM.

For `C=C1C(=O)O[C@H]2[C@H]1[C@H](OC(=O)CC(=O)O[C@@H]1C[C@@H](C)[C@@H]3C=CC(=O)[C@@]3(C)[C@H]3OC(=O)C(=C)[C@H]13)C[C@@H](C)[C@H]1C=CC(=O)[C@]12C`, the half-maximal cytotoxic concentration (CC50) was 3.95 µM.

In the case of `O=[N+]([O-])c1ccc(-[n+]2ccc3ccccc3c2)c([N+](=O)[O-])c1`, the 50% cytotoxic concentration (CC50) was 29 µM.

Take `CCS(=O)(=O)c1ncc(Cl)c(C(=O)Nc2ccc(S(=O)(=O)N3CCCC(C)C3)cc2)n1` (centres undefined): the CC50 was 31.2 µM.

Consider `CCCc1cc(-c2n[nH]c(C(=O)OCC)c2-c2cscn2)c(O)cc1O`, for which the CC50 is 11.1 µM.

With `O=C1NC(=Nc2ccc(O)cc2)S/C1=C\C=C\c1ccco1`, the CC50 is 30.2 µM.

Take `COc1cccc(-n2c(SCc3cc(=O)oc4cc(O)c(O)cc34)nc3ccccc3c2=O)c1`: the CC50 was 18.2 µM.

As to `O=C(NN1C(=O)/C(=C/C=C/c2ccco2)SC1=S)c1ccccc1O`, the CC50 was 40.6 µM.

Consider `Cc1ccc(-n2sc3ccccc3c2=O)cc1S(=O)(=O)N1CCCCC1`, for which the CC50 is 14.7 µM.

Consider `CCN(CC)c1ccc(/C=C2\C(=O)N(c3nnc(C)c(=O)[nH]3)N=C2C)cc1`, for which the CC50 is 46.4 µM.

Regarding `CC(=O)N(c1ccc2oc(=O)sc2c1)S(=O)(=O)c1ccccc1`, the CC50 is 36.8 µM.

For `Cc1c(Br)c(=O)oc2c(Br)c(O)c(O)cc12`, the CC50 was 49.2 µM.

For the compound `Oc1ccc(-c2[nH]ncc2-c2cccc3cccnc23)c(O)c1`, the CC50 was 17.3 µM.

`Cc1ccc2nc(-c3ccccn3)c(NC3CCCC3)n2c1`: the CC50 is 15.1 µM.

`CCOC(=O)c1[nH]nc(-c2cc(CC)c(O)cc2O)c1-c1cscn1`: the CC50 was 33.7 µM.

As to `CCCCCCCCCCCCCCCC[N+](C)(C)CCN(Cc1ccc(OC)cc1)c1ncccn1`, the CC50 is 7.39 µM.

On to `Oc1ccc(Nc2nc(N3CCCC3)c3ccccc3n2)cc1`, for which the CC50 is 30.7 µM.

As to `CN(C)S(=O)(=O)c1cccc(-n2sc3ccccc3c2=O)c1`, the CC50 was 30.4 µM.

In the case of `CC(/C=C1\SC(=S)N(CCCC(=O)Nc2ccc(C(=O)O)c(O)c2)C1=O)=C\c1ccccc1`, the CC50 was 38.4 µM.

Take `Cc1ccc(S(=O)(=O)N2[C@@H](c3ccc(Cl)cc3)C(C(=O)O)=CC[C@H]2c2ccc(Cl)cc2)cc1`: the CC50 is 30.7 µM.

Turning to `O=c1cc(-c2ccc(O)c(O)c2)oc2cc(O)cc(O)c12`, the CC50 is 47.9 µM.

As for `Oc1cc2c(c(Cl)c1O)CCNCC2c1ccccc1` (centres undefined), the CC50 was 41 µM.

As to `COc1ccc(N2CCC(CNC(=S)Nc3c(C)cccc3C)C2)cc1` (centres undefined), the CC50 was 45.8 µM.

As to `CCC[n+]1c2ccccc2cc2ccccc21`, the CC50 is 23.8 µM.

As for `CN1\C(=C/C=C/C=C/C=[N+](C)C)C(C)(C)c2ccccc21`, the CC50 was 21.7 µM.

As to `COc1ccc(N2CCC(CNC(=S)Nc3ccc(C)cc3C)C2)cc1` (centres undefined), the CC50 was 15 µM.

Regarding `O=C(CCl)Nc1ccc(N2CCCCCC2)cc1`, the CC50 is 47.1 µM.

Take `Cc1ccccc1-n1sc2cc(F)ccc2c1=O`: the CC50 was 14.6 µM.

Turning to `CCOc1cc(N2CCOCC2)c(OCC)cc1NS(=O)(=O)c1ccc(Cl)s1`, the CC50 is 40 µM.

In the case of `CC(=O)Nc1sc(N/N=C\c2ccco2)nc1-c1cccs1`, the CC50 was 49.8 µM.

Turning to `O=C(/C=C/c1ccc(O)c(O)c1)c1ccccc1O`, the CC50 was 26.3 µM.

For `CCOc1c(Br)cc(CNc2ccc(N3CCOCC3)cc2)cc1OC`, the CC50 was 13.8 µM.

For the compound `COc1cc(OC)c(-c2c3cc(O)c(=O)cc-3oc3cc(O)c(O)cc23)cc1OC`, the CC50 is 47.7 µM.

Regarding `Cc1ccc(-c2ccc(/C=C3\C(=O)ON=C3c3ccccc3)o2)c([N+](=O)[O-])c1`, the CC50 was 37.5 µM.

Take `O=C(c1ccccc1)N1CCN(c2ccc(NCc3ccc4c(c3)OCO4)cc2)CC1`: the 50% cytotoxic concentration (CC50) is 17.3 µM.

`CCCCNC(=O)c1sc(=S)n2c1[nH]c(=O)c1ccccc12`: the CC50 was 31.8 µM.

Regarding `O=c1oc2cc(O)ccc2s1`, the CC50 was 31.2 µM.

Turning to `CCCC[n+]1c2ccccc2cc2ccccc21`, the CC50 is 23.9 µM.

As to `N#Cc1ccccc1CN1C(=O)S/C(=C/c2cccn2-c2cccc(C(=O)O)c2)C1=O`, the CC50 was 16.9 µM.

Take `O=C1NC(=S)S/C1=C\c1ccc(SCc2ccccc2)o1`: the CC50 is 30 µM.

Consider `O=C(NC1CCCC1)c1sc(=S)n2c1[nH]c(=O)c1ccccc12`, for which the CC50 was 15.9 µM.

As to `Cc1ccc(/C=N/n2c(-c3ccco3)n[nH]c2=S)cc1`, the CC50 was 24.7 µM.

For `Cc1ccc(/C=C2/SC(=O)NC2=S)o1`, the CC50 was 48.1 µM.

For `CC1=C(C(=O)OCC(C)C)C(c2cccs2)NC(=S)N1` (centres undefined), the CC50 is 21 µM.

As for `CCOc1ccc(NCc2cccn2-c2nnc(N3CCC(C(=O)NCCCN4CCCCC4CC)CC3)s2)cc1` (centres undefined), the CC50 is 49.8 µM.

For `COc1ccc(NC2CCCN(Cc3cccc4cnccc34)C2)cc1OC` (centres undefined), the cytotoxic concentration (CC50) was 35.9 µM.

In the case of `COc1cc(CNc2ccc(N3CCCCC3)cc2)ccc1OCC(=O)NC(C)(C)C`, the CC50 is 24.5 µM.

On to `Clc1ccccc1CSc1nnc(-c2ccco2)c(-c2ccco2)n1`, for which the CC50 is 24.6 µM.

As for `Cc1ccc(OCCC(=O)N2CCN(c3ccc(O)cc3)CC2)cc1`, the CC50 was 20.7 µM.

`COc1cc(Cl)ccc1NC(=O)COc1ccccc1C(=O)N1CCN(c2ccc(O)cc2)CC1`: the CC50 is 33.7 µM.

Consider `C=CCn1c(=S)[nH]c2scc(-c3ccco3)c2c1=O`, for which the CC50 was 32.5 µM.

For `Cc1ccc(C2(C)NC(=O)N(CC(=O)Nc3nc(-c4ccccn4)cs3)C2=O)cc1` (centres undefined), the CC50 was 11.3 µM.

On to `Cc1ccc(S(=O)(=O)N2CCCOC2CNC(=O)C(=O)NCCc2c[nH]c3ccccc23)cc1` (centres undefined), for which the CC50 was 27.7 µM.

Take `CCCc1nc2ccccc2c(=O)n1/N=C/c1ccc(O)c(O)c1`: the CC50 was 48.4 µM.

For the compound `Cc1cc(C(=O)c2cccs2)c(N)s1`, the CC50 was 35.8 µM.

For the compound `CC(C)c1ccc(S(=O)(=O)N2CCN(CC(=O)c3ccc(O)c(O)c3)CC2)cc1`, the CC50 was 31.3 µM.

As for `Cc1c(C)n(Cc2ccccc2)c2ncnc(NN)c12`, the CC50 was 6.12 µM.

Turning to `CC1=NOC(=O)/C1=C\c1ccc(-c2ccccc2Br)o1`, the 50% cytotoxic concentration (CC50) is 24.7 µM.

As for `CCN(CC)c1ccc(NC(=O)C2CC(=O)N(Cc3ccccc3)C2)cc1` (centres undefined), the CC50 is 42.7 µM.

As to `O=C(O)c1ccc(-n2cccc2/C=C2/NC(=O)N(c3ccccc3)C2=O)cc1`, the CC50 was 15.6 µM.

As to `COc1cc(/C=C/C(=O)c2ccc([N+](=O)[O-])o2)ccc1O`, the CC50 is 44.1 µM.

Regarding `O=C(CCOc1ccccc1)N1CCN(c2ccc(O)cc2)CC1`, the CC50 is 31.5 µM.

On to `Cc1nc2ncccn2c1-c1csc(Nc2ccc(N(C)C)cc2)n1`, for which the CC50 is 27.5 µM.

As to `Oc1ccc(/C=N/Nc2ccc(C(F)(F)F)cn2)cc1O`, the CC50 was 34.6 µM.

In the case of `CNc1nc(-c2ccccc2)[n+](-c2ccc(C)cc2)s1`, the CC50 was 36.2 µM.

On to `COc1cnc(-c2ccccn2)nc1Oc1ccc(Cl)c2ccccc12`, for which the CC50 is 13.7 µM.

Turning to `CC(=O)N(c1ccc2oc(=O)sc2c1)S(=O)(=O)c1cccs1`, the CC50 is 33.8 µM.

For `Oc1ccc(N2CCN(C(=S)NCCc3ccccc3)CC2)cc1`, the CC50 is 45 µM.

On to `O=C(N/N=C/c1cc(Br)c(O)c(Br)c1)c1cc2c(ccc3ccccc32)o1`, for which the CC50 is 32.3 µM.

For `CCN(CC)c1ccc(/C=N/N2CCOCC2)cc1`, the CC50 was 49.4 µM.

Regarding `O=S(=O)(c1ccc(NC(=S)N2CCN(c3ccc(O)cc3)CC2)cc1)N1CCOCC1`, the CC50 was 33 µM.

On to `COc1cc(CNc2ccc(N3CCOCC3)cc2)ccc1OCC(=O)NC(C)(C)C`, for which the CC50 is 30.8 µM.

As to `CCS(=O)(=O)c1ncc(Cl)c(C(=O)Nc2ccc(S(=O)(=O)N3CCC(C)CC3)cc2)n1`, the CC50 was 48.6 µM.

For the compound `O=c1cc2oc3cc(O)c(O)cc3c(-c3ccccc3[N+](=O)[O-])c-2cc1O`, the CC50 is 24.1 µM.

As for `Oc1ccc(CCNc2c3ccccc3nc3ccccc23)cc1O`, the CC50 is 39.3 µM.

Take `O=c1c2ccccc2nc(COc2ccccc2)n1/N=C/c1ccc(O)c(O)c1`: the CC50 is 33.8 µM.

Regarding `CCN(CC)c1ccc(NC(=O)CCNS(=O)(=O)c2ccc3c(c2)CCC(=O)N3)c(C)c1`, the CC50 is 42.2 µM.

As to `CCCCC(CC)CN=C(N)NC(N)=NCCCCCCN=C(N)NC(N)=NCC(CC)CCCC` (centres undefined), the CC50 is 3.49 µM.

As for `O=C(CCSc1ccc(Cl)cc1)N1CCN(c2ccc(O)cc2)CC1`, the CC50 is 14.6 µM.

In the case of `O=C1C(SCCO)=C(SCCO)C(=O)c2ccccc21`, the CC50 is 28.2 µM.

Consider `COC1=C(Nc2ccc(O)cc2)C(=O)c2ccccc2C1=O`, for which the CC50 is 16.5 µM.

For the compound `Nc1cnc(Nc2ccc(Br)cc2)nc1N`, the CC50 is 42.2 µM.

Regarding `Cc1ccccc1/C=C/C(=O)c1ccc([N+](=O)[O-])o1`, the CC50 was 23.6 µM.

In the case of `COc1cccc(CNc2ccc3[nH]c(=O)[nH]c3c2)c1OCc1ccccc1`, the CC50 is 37 µM.

Regarding `Cc1cc2c(N=O)c(NO)ccc2[nH]1`, the CC50 is 22.1 µM.

As to `COCCN=C1Sc2nc3c(C)cccc3cc2CN1Cc1ccco1`, the CC50 was 23 µM.

As for `COc1ccc(-n2c(=O)c3c4c(sc3n3c(=S)[nH]nc23)COC(C(C)C)C4)cc1` (centres undefined), the CC50 was 40.1 µM.

For the compound `CCOc1ccc(NCc2cccn2-c2nnc(N3CCC(C(=O)NCCCN4CC(C)CC(C)C4)CC3)s2)cc1` (centres undefined), the CC50 is 36.9 µM.

As for `COc1cc(-c2cc(=O)c3ccccc3o2)ccc1O`, the CC50 is 35.7 µM.

As to `CN(C)c1ccc(NS(=O)(=O)c2cccc(Cl)c2)cc1`, the CC50 was 47.2 µM.

Regarding `O=C1NC(=S)S/C1=C\c1ccc(SCc2ccco2)o1`, the CC50 was 15.2 µM.
